In patent US20110263454A1, “Methods of Identifying Functional Characteristics of Promoters, Transcription Modifying Proteins and Transcription Modulating Agents” (Salk Institute for Biological Studies, priority 2008, published 2011):

Assays:
mNPY promoter = assay: NHR-promoter luciferase screen, mNPY promoter; format: cell-based, mouse; details: for Results of assays of transcription factor (+/- ligand) with mNPY: Table 6d, luciferase activity relative to control (control = 1.00); for Luc. act., normalized to lacZ / Normalized Luc. act., normalized to control: mNPY promoter, HR component with or without ligand; for Normalized Luc. act., normalized to control: relative to control
Protocol: (§1) The use, feasibility, and reproducibility of the functional NHR-promoter screen in a 48-well format have been tested validated. Briefly, there were co-expressed 50 ng of each NHR/NHR homodimer or NHR/RXR heterodimer with 100 ng promoter/luciferase construct and 50 ng of LacZ (as a control for transfection efficiency) in CV-1 cells using Fugene HD (Roche) as a transfection reagent (alternatively or additionally, a CMV-YFP construct can be used as a transfection control). Each of the nuclear hormone receptors that were used in these experiments was cloned into a pcDNA3.1 vector and comprised a C-terminally linked V5H6 tag. Twenty-four hours after transfection, appropriate ligands were added, where applicable, (see Table 5 for various ligands and concentrations and after 48 hrs, samples were assayed for luciferase and LacZ activity. To measure for luciferase activity 15 ul of sample was added to 30 ul of luciferase buffer (20 mM tricine, 1.07 mM MgCarbonate, 2.67 mM MgSulfate, 0.1 mM Naz-EDTA, 5 mM DTT, 5 mM ATP, 0.15 mg/ml CoA, 0.5 mM Luciferin), mixed briefly, and run in a Perkin Elmer Victor 5 luminometer. Thus, the functional NHR-promoter screen was used to observe the transcriptional activity of 29 promoters from various physiological pathways including inflammation, lipid and sugar metabolism, cholesterol transport, xenobiotic metabolism, and circadian rhythm.
(§2) The promoters that facilitate transcription of the indicated gene products that were tested using the protocols described herein are listed in the first row of the table. The nuclear hormone receptors and, where applicable, ligands that were assayed for their transcriptional effects on the promoters are listed in the first column of the table. The data represent the luciferase activity of each sample normalized to both the lacZ activity of that sample and to a control, e.g., no NHR or ligand, as customary in the art. As described previously, these normalizations allow the transcriptional activity of each reporter cell to be compared to other samples.
(§3) Tables 7-40 show the transcriptional effects of the hormone receptors, and, where applicable, ligands (orphan receptors are screened without ligand), on each individual promoter. […] The control data of each table are shown in their last rows.

hCAR promoter = assay: NHR-promoter luciferase screen, hCAR promoter; format: cell-based, human; details: for luciferase activity normalized to lacZ activity and to a control, hCAR: hCAR promoter-luciferase, CV-1 cells, NHR +/- ligand, control = 1.00; for Luc. act., normalized to lacZ / Normalized Luc. act., normalized to control: hCAR promoter, HR/ligand component
Protocol: as §1, §2, §3

mABCA1 promoter = assay: NHR-promoter luciferase screen, mABCA1 promoter; format: cell-based, mouse; details: for Luc. act., normalized to lacZ / Normalized Luc. act., normalized to control: ABCA1 promoter, hormone receptor with or without its ligand; for Normalized Luc. act., normalized to control: relative to control; for mABCA1 promoter reporter activity: transcription factor +/- ligand, control = 1.00
Protocol: as §1, §2, §3

mUCP3 promoter = assay: NHR-promoter luciferase screen, mUCP3 promoter; format: cell-based, mouse; details: for Normalized Luc. act., normalized to control / Luc. act., normalized to lacZ: mUCP3 promoter reporter; for Normalized Luc. act., normalized to control: HR without or with its ligand, relative to control; for Luc. act., normalized to lacZ: hormone receptor (HR) without or with its ligand; for mUCP3 promoter reporter activity: transcription factor +/- ligand, control = 1.00
Protocol: as §1, §2, §3

mDio2 promoter = assay: NHR-promoter luciferase screen, mDio2 promoter; format: cell-based, mouse; details: for Luc. act., normalized to lacZ / Normalized Luc. act., normalized to control: Dio2, HR component without or with its ligand; for mDio2 promoter reporter activity: transcription factor +/- ligand, control = 1.00
Protocol: as §1, §2, §3

hMyoD promoter = assay: NHR-promoter luciferase screen, hMyoD promoter; format: cell-based, human; details: for Luc. act., normalized to lacZ / Normalized Luc. act., normalized to control: MyoD promoter reporter, co-transfected HR, without or with its ligand; for Normalized Luc. act., normalized to control: relative to control; for luciferase activity normalized to lacZ activity and to a control, hMyoD: hMyoD promoter-luciferase, CV-1 cells, NHR +/- ligand, control = 1.00
Protocol: as §1, §2, §3

Row | Substance | Results of assays of transcription factor (+/- ligand) with mNPY (mNPY promoter) | Luc. act., normalized to lacZ (mNPY promoter) | Normalized Luc. act., normalized to control (mNPY promoter) | luciferase activity normalized to lacZ activity and to a control, hCAR (hCAR promoter) | Luc. act., normalized to lacZ (hCAR promoter) | Normalized Luc. act., normalized to control (hCAR promoter) | Luc. act., normalized to lacZ (mABCA1 promoter) | Normalized Luc. act., normalized to control (mABCA1 promoter) | mABCA1 promoter reporter activity (mABCA1 promoter) | Normalized Luc. act., normalized to control (mUCP3 promoter) | Luc. act., normalized to lacZ (mUCP3 promoter) | mUCP3 promoter reporter activity (mUCP3 promoter) | Luc. act., normalized to lacZ (mDio2 promoter) | Normalized Luc. act., normalized to control (mDio2 promoter) | mDio2 promoter reporter activity (mDio2 promoter) | Luc. act., normalized to lacZ (hMyoD promoter) | Normalized Luc. act., normalized to control (hMyoD promoter) | luciferase activity normalized to lacZ activity and to a control, hMyoD (hMyoD promoter)
1 | GR: Glucocorticoid Receptor (NR3C1), cDNA driver | 0.57 | 47.8 | 0.6 | 0.36 | 11.25 | 0.4 | 8.5 | 1.5 | 1.52 | 0.9 | 0.59 | 0.88 | 13.2 | 0.8 | 0.84 | 26.4 | 0.4 | 0.42
2 | PNR: Photoreceptor-specific Nuclear Receptor (NR2E3), cDNA driver | 2.00 | 168.3 | 2.0 | 0.38 | 11.9 | 0.4 | 9.9 | 1.8 | 1.76 | 0.8 | 0.5 | 0.79 | 14.0 | 0.9 | 0.89 | 37.1 | 0.6 | 0.59
3 | VDR: Vitamin D Receptor (NR1I1), cDNA driver | 0.79 | 66.7 | 0.8 | 0.83 | 26.1 | 0.8 | 15.2 | 2.7 | 2.71 | 1.5 | 1.0 | 1.49 | 23.7 | 1.5 | 1.51 | 52.8 | 0.8 | 0.83
4 | ERR1: Estrogen Related Receptor α (NR3B1, ERRa), cDNA driver | 0.83 | 69.6 | 0.8 | 0.82 | 25.8 | 0.8 | 8.2 | 1.5 | 1.47 | 1.5 | 1.0 | 1.47 | 34.6 | 2.2 | 2.20 | 69.1 | 1.1 | 1.09
5 | AR: Androsterone Receptor (NR3C4), cDNA driver | 1.12 | 93.8 | 1.1 | 0.89 | 28.0 | 0.9 | 8.3 | 1.5 | 1.48 | 2.5 | 1.69 | 2.50 | 19.7 | 1.3 | 1.26 | 57.5 | 0.9 | 0.91
6 | PPARg: Peroxisome proliferator activated receptor γ (NR1C3), cDNA driver | 1.14 | 95.6 | 1.1 | 1.58 | 49.8 | 1.6 | 14.4 | 2.6 | 2.56 | 1.8 | 1.2 | 1.83 | 35.5 | 2.3 | 2.26 | 74.5 | 1.2 | 1.18
7 | LXRa: Liver X Receptor α (NR1H3), cDNA driver | 0.67 | 56.2 | 0.7 | 1.87 | 58.9 | 1.9 | 93.0 | 16.6 | 16.56 | 1.6 | 1.1 | 1.58 | 19.0 | 1.2 | 1.21 | 60.1 | 0.9 | 0.95
